Paper PMC10421158, “In Vitro and In Silico Analysis of the Anticancer Effects of Eurycomanone and Eurycomalactone from Eurycoma longifolia” (Plants, 2023)
Where two headings read alike, the source gives them in different places.

Experiments:
[1] = test system: cardiomyocyte (H9C2) normal cell line; assay: Sulforhodamine B (SRB) cell viability assay, H9C2; assay type: cell-based; settings: read-out: IC50 H9C2
Excerpt: (§1) The cancer cell lines used for this study were ovarian cancer (A2780), cervical cancer (HeLa) and colorectal cancer (HT29) as well as normal cardiomyocyte (H9C2) and liver (WRL-68) cell lines. All cell lines were purchased from American Type Culture Collections except A2780, which were purchased from the European Collection of Authenticated Cell Cultures. These cells were subcultured in Dulbecco’s Modified Eagle’s medium (Sigma-Aldrich, St. Louis, MO, USA) and supplemented with 10% fetal bovine serum (Sigma, USA), 1% penicillin–streptomycin (Sigma, USA), 1% amphotericin B (Sigma, USA) and 1% gentamicin (Sigma, USA). The cells were seeded in each well of 96 well plates and incubated in a humidified incubator at 37 °C and 5% carbon dioxide in air for 24 h. Each cell line was then treated with eurycomanone and eurycomalactone at five different concentrations (0.08, 0.4, 2, 10 and 50 µM) in triplicate. Cisplatin and methotrexate (Sigma, USA), known chemo-drugs, were also treated on these cell lines at five different concentrations (0.08, 0.4, 2, 10, 50 µM for cisplatin, 0.0008, 0.004, 0.02, 0.1, 0.5 µM for methotrexate) for the comparative studies. The treated cells were then incubated in the same incubator with the mentioned conditions for 72 h. The experiment was repeated at least three times.
(§2) Sulforhodamine B (SRB) assay had been performed after the treated cells were incubated for 72 h. Briefly, 50 μL of ice cold tricholoroacetic acid (TCA) was added to each well and allowed to stand for 30 min at room temperature, followed by rinsing each well with tap water. Then, 100 μL of 0.4% SRB was added to each well to stain living cells for 30 min followed by a rinse with 1% acetic acid. Finally, 100 μL of Tris buffer was added to each well and the optical density (OD) of the treated and nontreated cells were read at 492 nm with a Magellan V.4 microtiter plate reader (Tecan, Salzburg, Austria). The percentage of cell viability was calculated based on (OD492nm of the treated cells/OD492nm of the nontreated cells) × 100. The IC50 values were determined from the dose–response curve of percentage of cell viability versus the concentration of the compounds (μM). Cells viability assay for each treatment was performed in triplicate in at least three independent experiments, and the IC50 values are given as the mean ± SEM.

[2] = test system: colorectal (HT29) cancer cell line; assay: Sulforhodamine B (SRB) cell viability assay, HT-29; assay type: cell-based; settings: read-out: IC50 HT-29
Excerpt: as §1, §2

[3] = test system: cervical (HeLa) cancer cell line; assay: Sulforhodamine B (SRB) cell viability assay, HeLa; assay type: cell-based; settings: 72 h, read-out: IC50 HeLa
Excerpt: as §1, §2

[4] = test system: ovarian (A2780) cancer cell line; assay: Sulforhodamine B (SRB) cell viability assay, A2780; assay type: cell-based; settings: read-out: IC50 A2780
Excerpt: as §1
as §2, with “Briefly,” for “Sulforhodamine B (SRB) assay had been performed after the treated cells were incubated for 72 h. Briefly,”

[5] = test system: liver (WRL-68) normal cell line; assay: Sulforhodamine B (SRB) cell viability assay, WRL-68; assay type: cell-based; settings: read-out: IC50 WRL-68
Excerpt: as §1, §2

HeLa cells = assay: Apoptotic Hoechst 33342 assay, HeLa; assay type: cell-based
Protocol: (§3) A2780, HT-29 and HeLa cancer cell lines were chosen for evaluating the apoptotic effects of eurycomanone and eurycomalactone. The morphological changes of cells undergoing apoptosis were visualised under a fluoresecence microscope after performing the Hoechst 33342 assay. Briefly, 10 × 10^4 cells were seeded for 500 µL/well of four Labtek® Chamber Slides (Thermo Fisher Scientific, Waltham, MA, USA) and incubated in 5% carbon dioxide in air for 24 h for the cells’ attachment. The cells were treated with concentrations of IC50/5, IC50 and IC50 × 5 values of eurycomanone and eurycomalactone in different wells and further incubated for 6, 24 and 48 h, respectively. Nontreated cells were also included in the experimental design, which acted as a negative control in this study. Following this, the media from each well were discarded and cells were fixed with 4% (w/v) paraformaldehyde for 30 min. The cells were then washed with cold phosphate buffer solution (PBS) prior to staining using Hoechst 33342, according to the method of [26]. Quantitative assessment of apoptotic cells were determined by counting apoptotic nuclei from five randomly chosen areas corroborating visual impression based on the morphology shown in Figure 3 and Figure 4. The apoptotic index (number of apoptotic nuclei per total nuclei × 100) was expressed as a percentage of the mean ± S.E.M and analysed using ANOVA followed by Tukey’s multiple comparison test.

A2780 cells = assay: Apoptotic Hoechst 33342 assay, A2780; assay type: cell-based
Protocol: as §3

HT-29 cells = assay: Apoptotic Hoechst 33342 assay, HT-29; assay type: cell-based
Protocol: as §3

[6] = test system: ovarian (A2780), cervical (HeLa) and colorectal (HT29) cancer cells; assay: SRB assay, range over the three cancer cell lines; assay type: cell-based; settings: 72 h, read-out: range of IC50 values in cancer cell lines
Excerpt: as §1
as §2, with “Briefly,” for “Sulforhodamine B (SRB) assay had been performed after the treated cells were incubated for 72 h. Briefly,”, “Cells viability assay for each treatment was performed in triplicate in at least three independent experiments, and the IC50 values are given as the mean ± SEM.” left out

[7] = test system: Cytochrome P450 (CYP) enzymes; parameters: method as in PMID 23881640; settings: in vitro assay; cited from earlier work
[8] = parameters: method as in PMID 16206032; settings: in vivo, given orally; cited from earlier work
[9] = SRB, 72 h, normal cell line, mean ± SEM (n = 9)

## N.N.[Cl][Pt][Cl] [Cisplatin, reference compound]
[1]; [9]
  IC50: 14.1 ± 1.14 µM
[2]; SRB, 72 h, mean ± SEM (n = 9)
  IC50: 1380 ± 37 nM
[3]; SRB, mean ± SEM (n = 9)
  IC50: 1540 ± 120 nM
[4]; SRB, 72 h, mean ± SEM (n = 9)
  IC50: 1770 ± 18 nM
[5]; [9]
  IC50: 1130 ± 98 nM

## CC1=CC(=O)[C@@H](O)[C@@]2(C)[C@H]1CC(=O)[C@@]1(C)[C@H]3C(=O)O[C@H]([C@@H]3C)[C@H](O)[C@@H]12 [Eurycomalactone]
[1]; Rattus norvegicus, H9c2, 72 h
  IC50: 7 ± 0.43 µM
[2]; Homo sapiens, HT-29, 72 h
  IC50: 2210 ± 49 nM
[3]; Homo sapiens, HeLa
  IC50: 1600 ± 120 nM
[4]; Homo sapiens, A2780, 72 h
  IC50: 2460 ± 81 nM
HeLa cells; IC50, 6 h
  Apoptotic index: 17.67 ± 0.77 ^ab/x %
HeLa cells; IC50, 24 h
  Apoptotic index: 32.00 ± 1.57 ^ab/xy %
HeLa cells; IC50, 48 h
  Apoptotic index: 36.71 ± 1.19 ^ab/xz,yz %
HeLa cells; IC50/5, 6 h
  Apoptotic index: 5.45 ± 0.23 ^a/x %
HeLa cells; IC50/5, 24 h
  Apoptotic index: 8.94 ± 0.21 ^a/xy %
HeLa cells; IC50/5, 48 h
  Apoptotic index: 14.78 ± 0.12 ^a/xz,yz %
HeLa cells; IC50 × 5, 6 h
  Apoptotic index: 31.87 ± 2.19 ^ac,bc/x %
HeLa cells; IC50 × 5, 24 h
  Apoptotic index: 62.20 ± 1.35 ^ac,bc/xy %
HeLa cells; IC50 × 5, 48 h
  Apoptotic index: 100.00 ± 0.00 ^ac,bc/xz,yz %
A2780 cells; A2780, IC50, 6 h
  Apoptotic index: 4.26 ± 0.64 ^b/x %
A2780 cells; A2780, IC50, 24 h
  Apoptotic index: 6.29 ± 0.21 ^ab/y %
A2780 cells; A2780, IC50, 48 h
  Apoptotic index: 7.93 ± 2.28 ^b/xz %
A2780 cells; A2780, IC50/5, 6 h
  Apoptotic index: 3.84 ± 0.10 ^a/x %
A2780 cells; A2780, IC50/5, 24 h
  Apoptotic index: 4.12 ± 0.16 ^a/y %
A2780 cells; A2780, IC50/5, 48 h
  Apoptotic index: 5.16 ± 0.065 ^a/xz,yz %
A2780 cells; A2780, IC50 × 5, 6 h
  Apoptotic index: 15.81 ± 0.38 ^ac,bc/x %
A2780 cells; A2780, IC50 × 5, 24 h
  Apoptotic index: Cells died and completely detached ^ac,bc/xy
A2780 cells; A2780, IC50 × 5, 48 h
  Apoptotic index: Cells died and completely detached ^ac,bc/xz
HT-29 cells; HT-29, IC50, 6 h
  Apoptotic index: 4.51 ± 0.23 ^b/x %
HT-29 cells; HT-29, IC50, 24 h
  Apoptotic index: 12.41 ± 0.77 ^ab/xy %
HT-29 cells; HT-29, IC50, 48 h
  Apoptotic index: 14.28 ± 0.84 ^ab/xz,yz %
HT-29 cells; HT-29, IC50/5, 6 h
  Apoptotic index: 3.79 ± 0.45 ^a/x %
HT-29 cells; HT-29, IC50/5, 24 h
  Apoptotic index: 7.71 ± 0.51 ^a/xy %
HT-29 cells; HT-29, IC50/5, 48 h
  Apoptotic index: 8.86 ± 0.68 ^a/xz %
HT-29 cells; HT-29, IC50 × 5, 6 h
  Apoptotic index: 6.52 ± 1.22 ^ac,bc/x %
HT-29 cells; HT-29, IC50 × 5, 24 h
  Apoptotic index: 20.21 ± 1.52 ^ac,bc/xy %
HT-29 cells; HT-29, IC50 × 5, 48 h
  Apoptotic index: 100.00 ± 0.00 ^ac,bc/xz,yz %
[6]
  IC50: 1600 to 2460 nM
[5]; Homo sapiens, WRL68, 72 h
  IC50: 2710 ± 42 nM

## C=C1[C@@H](O)[C@]2(O)OC[C@]34[C@H]2[C@@]2(C)[C@H](O)C(=O)C=C(C)[C@@H]2C[C@H]3OC(=O)[C@H](O)[C@@]14O [Eurycomanone]
[1]; Rattus norvegicus, H9c2, 72 h
  IC50: > 50 µM
[2]; Homo sapiens, HT-29, 72 h
  IC50: 1220 ± 110 nM
[3]; Homo sapiens, HeLa
  IC50: 4580 ± 90 nM
[4]; Homo sapiens, A2780, 72 h
  IC50: 1370 ± 130 nM
HeLa cells; IC50, 6 h
  Apoptotic index: 19.98 ± 0.76 ^ab/x %
HeLa cells; IC50, 24 h
  Apoptotic index: 52.57 ± 1.40 ^ab/y %
HeLa cells; IC50, 48 h
  Apoptotic index: 61.16 ± 0.63 ^ab/xz,yz %
HeLa cells; IC50/5, 6 h
  Apoptotic index: 8.42 ± 0.20 ^a/x %
HeLa cells; IC50/5, 24 h
  Apoptotic index: 13.76 ± 1.26 ^a/xy %
HeLa cells; IC50/5, 48 h
  Apoptotic index: 16.79 ± 0.92 ^a/xz,yz %
HeLa cells; IC50 × 5, 6 h
  Apoptotic index: 41.37 ± 0.24 ^ac,bc/x %
HeLa cells; IC50 × 5, 24 h
  Apoptotic index: 94.56 ± 1.16 ^ac,bc/xy %
HeLa cells; IC50 × 5, 48 h
  Apoptotic index: 100.00 ± 0.00 ^ac,bc/xz,yz %
[7]
  inhibition of cytochromes in vitro: no inhibition
[8]
  oral bioavailability: poorly bioavailable
A2780 cells; A2780, IC50, 6 h
  Apoptotic index: 8.48 ± 0.60 ^ab/x %
A2780 cells; A2780, IC50, 24 h
  Apoptotic index: 13.13 ± 1.30 ^ab/y %
A2780 cells; A2780, IC50, 48 h
  Apoptotic index: 31.74 ± 3.19 ^ab/xz,yz %
A2780 cells; A2780, IC50/5, 6 h
  Apoptotic index: 4.30 ± 0.34 ^a/x %
A2780 cells; A2780, IC50/5, 24 h
  Apoptotic index: 7.11 ± 1.60 ^a/xy %
A2780 cells; A2780, IC50/5, 48 h
  Apoptotic index: 14.72 ± 0.59 ^a/xz,yz %
A2780 cells; A2780, IC50 × 5, 6 h
  Apoptotic index: 13.01 ± 0.29 ^ac,bc/x %
A2780 cells; A2780, IC50 × 5, 24 h
  Apoptotic index: 28.90 ± 0.93 ^ac,bc/xy %
A2780 cells; A2780, IC50 × 5, 48 h
  Apoptotic index: 100.00 ± 0.00 ^ac,bc/xz,yz %
HT-29 cells; HT-29, IC50, 6 h
  Apoptotic index: 5.24 ± 0.17 ^b/x %
HT-29 cells; HT-29, IC50, 24 h
  Apoptotic index: 6.30 ± 1.01 ^b/y %
HT-29 cells; HT-29, IC50, 48 h
  Apoptotic index: 14.80 ± 0.56 ^ab/xz,yz %
HT-29 cells; HT-29, IC50/5, 6 h
  Apoptotic index: 4.08 ± 0.81 ^a/x %
HT-29 cells; HT-29, IC50/5, 24 h
  Apoptotic index: 4.18 ± 0.21 ^a/y %
HT-29 cells; HT-29, IC50/5, 48 h
  Apoptotic index: 4.24 ± 0.20 ^a/z %
HT-29 cells; HT-29, IC50 × 5, 6 h
  Apoptotic index: 5.97 ± 0.35 ^ac/x %
HT-29 cells; HT-29, IC50 × 5, 24 h
  Apoptotic index: 10.95 ± 0.71 ^ac,bc/y %
HT-29 cells; HT-29, IC50 × 5, 48 h
  Apoptotic index: 26.20 ± 1.48 ^ac,bc/xz,yz %
[6]
  IC50: 1220 to 4580 nM
[5]; Homo sapiens, WRL68, 72 h
  IC50: 1340 ± 46 nM

## CN(Cc1cnc2nc(N)nc(N)c2n1)c1ccc(C(=O)N[C@@H](CCC(=O)O)C(=O)O)cc1 [Methotrexate, reference compound]
[1]; Rattus norvegicus, H9c2, SRB, 72 h, normal cell line, mean ± SEM (n = 9)
  IC50: > 50 µM
[2]; Homo sapiens, HT-29, SRB, 72 h, mean ± SEM (n = 9)
  IC50: 59 ± 1 nM
[3]; Homo sapiens, HeLa, SRB, mean ± SEM (n = 9)
  IC50: 94 ± 4.3 nM
[4]; Homo sapiens, A2780, SRB, 72 h, mean ± SEM (n = 9)
  IC50: 16 ± 0.5 nM
[6]; range over A2780, HeLa, HT29, SRB
  IC50: 16 to 94 nM
[5]; Homo sapiens, WRL68, SRB, 72 h, normal cell line, mean ± SEM (n = 9)
  IC50: 15 ± 0.41 nM
